Measured values from PubChem BioAssay (NCI).
Values joined by “and” are separate entries in the source; they are usually repeats but may differ in a detail not shown here. Equal values may be shown once.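 Values below derive from 48-hour exposures of cells grown in 96-well plates, with endpoints linearly interpolated between the two concentrations bracketing the appropriate inhibition level. Abbreviation: GI50, concentration required for 50% inhibition of growth. TGI is the concentration that stops growth completely.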

Assays:
Experiment in all cases: DTP human tumour cell line panel, 48 h
A549 NSCLC = tested on: A549 NSCLC
HOP-92 NSCLC = tested on: HOP-92 NSCLC
COLO 205 colon = tested on: COLO 205 colon
OVCAR-4 ovarian = tested on: OVCAR-4 ovarian
ACHN renal = tested on: ACHN renal
SN12C renal = tested on: SN12C renal
KM12 colon = tested on: KM12 colon
UACC-62 melanoma = tested on: UACC-62 melanoma
SK-MEL-5 melanoma = tested on: SK-MEL-5 melanoma
HCT-116 colon = tested on: HCT-116 colon

## CC(C)[C@H]1CO[C@@H]2O[C@H](C)CC(=O)N21
A549 NSCLC
  TGI: > 100 µM
HOP-92 NSCLC
  TGI: > 100 µM
COLO 205 colon
  TGI: > 100 µM
OVCAR-4 ovarian
  TGI: > 100 µM
ACHN renal
  TGI: > 100 µM
SN12C renal
  TGI: > 100 µM
KM12 colon
  TGI: > 100 µM
UACC-62 melanoma
  TGI: > 100 µM
SK-MEL-5 melanoma
  TGI: > 100 µM
HCT-116 colon
  TGI: > 100 µM

## Clc1ccccc1-c1nc(-c2ccncc2)no1
A549 NSCLC
  TGI: > 100 µM
HOP-92 NSCLC
  TGI: > 100 µM
COLO 205 colon
  TGI: > 100 µM
OVCAR-4 ovarian
  TGI: > 100 µM
ACHN renal
  TGI: > 100 µM
SN12C renal
  TGI: > 100 µM
KM12 colon
  TGI: > 100 µM
UACC-62 melanoma
  TGI: > 100 µM
SK-MEL-5 melanoma
  TGI: 56.4 µM
HCT-116 colon
  TGI: > 100 µM

## C/C=C/C(=O)[C@@H](O)C(C)C
A549 NSCLC
  TGI: > 100 µM
HOP-92 NSCLC
  TGI: > 100 µM
COLO 205 colon
  TGI: > 100 µM
OVCAR-4 ovarian
  TGI: > 100 µM
ACHN renal
  TGI: > 100 µM
SN12C renal
  TGI: > 100 µM
KM12 colon
  TGI: > 100 µM
UACC-62 melanoma
  TGI: > 100 µM
SK-MEL-5 melanoma
  TGI: > 100 µM
HCT-116 colon
  TGI: > 100 µM

## Cc1ccc(Nc2[nH]c(C(=O)c3ccc(Cl)cc3)c(N)c2C(=S)Nc2ccccc2)nc1
A549 NSCLC
  GI50: 37.7 µM
  TGI: > 100 µM
HOP-92 NSCLC
  GI50: 29.5 µM
  TGI: > 100 µM
COLO 205 colon
  GI50: 31.9 µM
  TGI: > 100 µM
OVCAR-4 ovarian
  GI50: 63.6 µM
  TGI: > 100 µM
ACHN renal
  GI50: 31.9 µM
  TGI: > 100 µM
SN12C renal
  GI50: 18.5 µM
  TGI: 37.9 µM
KM12 colon
  GI50: 16.8 µM
  TGI: 54.9 µM
UACC-62 melanoma
  GI50: 15.3 µM
  TGI: 41 µM
SK-MEL-5 melanoma
  GI50: 14 µM
  TGI: 33.7 µM
HCT-116 colon
  GI50: 42.8 µM
  TGI: > 100 µM

## COc1ccc2c(c1)C(=O)c1c-2c(OCCN(C)C)nc2cc(OC)ccc12
A549 NSCLC
  GI50: 0.804 µM
  TGI: 2.8 µM
HOP-92 NSCLC
  GI50: 1.65 µM
  TGI: 7.02 µM
COLO 205 colon
  GI50: 0.571 µM
  TGI: 10.8 µM
OVCAR-4 ovarian
  GI50: 1.06 µM
  TGI: 2.9 µM
ACHN renal
  GI50: 0.532 µM
  TGI: 1.9 µM
SN12C renal
  GI50: 1.06 µM
  TGI: 2.69 µM
KM12 colon
  GI50: 0.759 µM
  TGI: 2.14 µM
UACC-62 melanoma
  GI50: 2.12 µM
  TGI: 8.51 µM
SK-MEL-5 melanoma
  GI50: 1.73 µM
  TGI: 3.38 µM
HCT-116 colon
  GI50: 0.344 µM
  TGI: 1.41 µM

## CSC1=Nc2c(c(C)c(-c3ccccc3)n2CCCCl)C2=NC(=O)CN12
A549 NSCLC
  GI50: 7.68 µM
  TGI: 65.8 µM
HOP-92 NSCLC
  GI50: 11.5 µM
  TGI: 37 µM
COLO 205 colon
  GI50: 4.13 µM
  TGI: 15.2 µM
OVCAR-4 ovarian
  GI50: 6.74 µM
  TGI: 44.9 µM
ACHN renal
  GI50: 9.48 µM
  TGI: 37.7 µM
SN12C renal
  GI50: 6.28 µM
  TGI: 39 µM
KM12 colon
  GI50: 4.2 µM
  TGI: 18.7 µM
UACC-62 melanoma
  GI50: 2.08 µM
  TGI: 11.6 µM
SK-MEL-5 melanoma
  GI50: 3.49 µM
  TGI: 14.1 µM
HCT-116 colon
  GI50: 3.19 µM
  TGI: 47.7 µM

## CCOC(=O)C12CCSC1C1(C#N)C(C#N)=CC2(N=P(c2ccccc2)(c2ccccc2)c2ccccc2)n2c(=O)n(-c3ccccc3)c(=O)n21 (stereo not given)
A549 NSCLC
  TGI: > 100 µM
HOP-92 NSCLC
  TGI: 60.9 µM
COLO 205 colon
  TGI: > 100 µM
OVCAR-4 ovarian
  TGI: 79.8 µM
ACHN renal
  TGI: > 100 µM
SN12C renal
  TGI: > 100 µM
KM12 colon
  TGI: > 100 µM
UACC-62 melanoma
  TGI: 77.9 µM
SK-MEL-5 melanoma
  TGI: 55.4 µM
HCT-116 colon
  TGI: > 100 µM

## CN(C)CCNC(=O)c1cccc2ccc(-c3cccnc3)nc12
A549 NSCLC
  TGI: 32.3 µM
HOP-92 NSCLC
  TGI: 14.4 µM
COLO 205 colon
  TGI: 13.6 µM
OVCAR-4 ovarian
  TGI: 36.9 µM
ACHN renal
  TGI: 23.2 µM
SN12C renal
  TGI: 23.1 µM
KM12 colon
  TGI: 98.4 µM
UACC-62 melanoma
  TGI: 14.8 µM
SK-MEL-5 melanoma
  TGI: 12.9 µM
HCT-116 colon
  TGI: 13.1 µM

## O=c1c2[nH]c3ccccc3c2nc2n1CCS2
A549 NSCLC
  GI50: > 100 µM
  TGI: > 100 µM
HOP-92 NSCLC
  GI50: 4.25 µM
  TGI: > 100 µM
COLO 205 colon
  GI50: > 100 µM
  TGI: > 100 µM
OVCAR-4 ovarian
  GI50: > 100 µM
  TGI: > 100 µM
ACHN renal
  GI50: 65.2 µM
  TGI: > 100 µM
SN12C renal
  GI50: > 100 µM
  TGI: > 100 µM
KM12 colon
  GI50: 67 µM
  TGI: > 100 µM
UACC-62 melanoma
  GI50: 92.7 µM
  TGI: > 100 µM
SK-MEL-5 melanoma
  GI50: > 100 µM
  TGI: > 100 µM
HCT-116 colon
  GI50: > 100 µM
  TGI: > 100 µM

## COc1ccc2[nH]c(-c3ccccc3)c(C=C(C#N)C#N)c2c1
A549 NSCLC
  GI50: 6.97 µM
  TGI: > 100 µM
HOP-92 NSCLC
  GI50: 2.4 µM
  TGI: 36.4 µM
COLO 205 colon
  GI50: 2.11 µM
  TGI: 6.83 µM
OVCAR-4 ovarian
  GI50: 5.36 µM
  TGI: > 100 µM
ACHN renal
  GI50: 7.41 µM
  TGI: > 100 µM
SN12C renal
  GI50: 4.67 µM
  TGI: > 100 µM
KM12 colon
  GI50: 3.45 µM
  TGI: > 100 µM
UACC-62 melanoma
  GI50: 2.53 µM
  TGI: 21.7 µM
SK-MEL-5 melanoma
  GI50: 2.87 µM
  TGI: > 100 µM
HCT-116 colon
  GI50: 4.37 µM
  TGI: > 100 µM

## COc1cc(/C=C2\CCCC3C2=Nc2ccccc2NC3c2cc(OC)c(OC)c(OC)c2)cc(OC)c1OC (stereo not given)
A549 NSCLC
  GI50: 1.9 µM
  TGI: 8.06 µM
HOP-92 NSCLC
  GI50: 1.83 µM
  TGI: 9.84 µM
COLO 205 colon
  GI50: 2.59 µM
  TGI: 6.29 µM
OVCAR-4 ovarian
  GI50: 2.14 µM
  TGI: > 100 µM
ACHN renal
  GI50: 1.66 µM
  TGI: 3.57 µM
SN12C renal
  GI50: 2.1 µM
  TGI: 14 µM
KM12 colon
  GI50: 0.863 µM
  TGI: 2.21 µM
UACC-62 melanoma
  GI50: 1.37 µM
  TGI: 3.52 µM
SK-MEL-5 melanoma
  GI50: 1.95 µM
  TGI: 5.72 µM
HCT-116 colon
  GI50: 0.968 µM
  TGI: 2.17 µM

## COc1cc(OC)cc(-c2ccc(-c3ccc(C(=N)N)s3)s2)c1
A549 NSCLC
  GI50: 1.63 µM
  TGI: 3.37 µM
HOP-92 NSCLC
  GI50: 0.883 µM and 0.528 µM
  TGI: 2.39 µM and 2.1 µM
COLO 205 colon
  GI50: 0.209 µM
  TGI: 0.407 µM
OVCAR-4 ovarian
  GI50: 1.44 µM
  TGI: 3.62 µM
ACHN renal
  GI50: 1.45 µM
  TGI: 3.25 µM
SN12C renal
  GI50: 1.74 µM
  TGI: 4.32 µM
KM12 colon
  GI50: 0.517 µM and 0.302 µM
  TGI: 2.04 µM and 1.13 µM
UACC-62 melanoma
  GI50: 1.75 µM
  TGI: 3.53 µM
SK-MEL-5 melanoma
  GI50: 1.41 µM
  TGI: 2.81 µM
HCT-116 colon
  GI50: 0.318 µM
  TGI: 1.22 µM

## Nc1c(S(=O)(=O)O)cc(Nc2cccc(S(N)(=O)=O)c2)c2c1C(=O)c1ccccc1C2=O
A549 NSCLC
  TGI: > 100 µM
HOP-92 NSCLC
  TGI: > 100 µM
COLO 205 colon
  TGI: > 100 µM
OVCAR-4 ovarian
  TGI: > 100 µM
ACHN renal
  TGI: > 100 µM
SN12C renal
  TGI: > 100 µM
KM12 colon
  TGI: > 100 µM
UACC-62 melanoma
  TGI: 58.7 µM
SK-MEL-5 melanoma
  TGI: > 100 µM
HCT-116 colon
  TGI: > 100 µM

## Cc1c2cnccc2c(C)c2c1c1cc(C(=O)O)ccc1n2C
A549 NSCLC
  GI50: 1.68 µM
  TGI: 6.68 µM
HOP-92 NSCLC
  GI50: 0.913 µM
  TGI: 5.95 µM
COLO 205 colon
  GI50: 0.594 µM
  TGI: 4.02 µM
OVCAR-4 ovarian
  GI50: 1.43 µM
  TGI: 6.59 µM
ACHN renal
  GI50: 0.464 µM
  TGI: 5.27 µM
SN12C renal
  GI50: 0.772 µM
  TGI: 10.2 µM
KM12 colon
  GI50: 1.04 µM
  TGI: 6.92 µM
UACC-62 melanoma
  GI50: 0.546 µM
  TGI: 2.12 µM
SK-MEL-5 melanoma
  GI50: 0.897 µM
  TGI: 2.44 µM
HCT-116 colon
  GI50: 0.373 µM
  TGI: > 100 µM
